Test results as given in ChEMBL document CHEMBL1201862, “PubChem BioAssay data set” (2004).
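Five compound concentrations were applied to cells in 96-well plates for 48 hours; endpoints were derived by simple linear interpolation of the resulting dose-response curve. GI50: concentration for 50% inhibition of growth.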 The source made the active and inactive calls. Rule as the data show it: active = GI50 up to about 1.1 µM and inactive = higher. Peptide text beside a SMILES is read from it. * marks the point of attachment. Boc = CC(C)(C)OC(=O)*

Columns and labels:
Experiment in all cases: DTP human tumour cell line panel, 48 h
786-0 = tested on: 786-0
BT-549 = tested on: BT-549
DU-145 = tested on: DU-145
HCT-116 = tested on: HCT-116
HCT-15 = tested on: HCT-15
HT-29 = tested on: HT-29
KM12 = tested on: KM12
LOX IMVI = tested on: LOX IMVI
MDA-MB-435 = tested on: MDA-MB-435
MOLT-4 = tested on: MOLT-4
NCI/ADR-RES = tested on: NCI/ADR-RES
OVCAR-8 = tested on: OVCAR-8
RXF 393 = tested on: RXF 393
SF-268 = tested on: SF-268
SF-295 = tested on: SF-295
SK-MEL-2 = tested on: SK-MEL-2
SK-MEL-5 = tested on: SK-MEL-5
SK-OV-3 = tested on: SK-OV-3

Row | SMILES | GI50 (786-0) | GI50 (BT-549) | GI50 (DU-145) | GI50 (HCT-116) | GI50 (HCT-15) [µM] | GI50 (HT-29) | GI50 (KM12) | GI50 (LOX IMVI) | GI50 (MDA-MB-435) | GI50 (MOLT-4) | GI50 (NCI/ADR-RES) | GI50 (OVCAR-8) | GI50 (RXF 393) | GI50 (SF-268) | GI50 (SF-295) | GI50 (SK-MEL-2) | GI50 (SK-MEL-5) | GI50 (SK-OV-3)
1 | CCOCC(NC(=O)C(CC(C)C)NC(=O)OC(C)(C)C)C(N)=O (stereo not drawn) (Boc-Leu-Ser(Et)-NH2; configuration not given here) | > 100 µM (inactive) | > 100 µM (inactive) | > 100 µM (inactive) | > 100 µM (inactive) | > 100 | > 100 µM (inactive) | > 100 µM (inactive) | > 100 µM (inactive) | > 100 µM (inactive) | > 100 µM (inactive) | > 100 µM (inactive) | > 100 µM (inactive) | > 100 µM (inactive) | > 100 µM (inactive) | > 100 µM (inactive) | > 100 µM (inactive) | > 100 µM (inactive) | > 100 µM (inactive)
2 | O=C1CC(n2cccc2)c2cc(Br)sc21 (stereo not given) | 42 µM (inactive) | > 100 µM (inactive) | > 100 µM (inactive) | 66.7 µM (inactive) | > 100 | > 100 µM (inactive) | > 100 µM (inactive) | 31.9 µM (inactive) | 87.5 µM (inactive) | 16.1 µM (inactive) | > 100 µM (inactive) | 36.9 µM (inactive) | – | > 100 µM (inactive) | > 100 µM (inactive) | > 100 µM (inactive) | > 100 µM (inactive) | > 100 µM (inactive)
3 | CN(C)N1C(=O)CC2(CCN(CCCC(=O)c3ccc(F)cc3)CC2)C1=O | > 100 µM (inactive) | > 100 µM (inactive) | > 100 µM (inactive) | > 100 µM (inactive) | > 100 | > 100 µM (inactive) | > 100 µM (inactive) | > 100 µM (inactive) | > 100 µM (inactive) | > 100 µM (inactive) | > 100 µM (inactive) | > 100 µM (inactive) | > 100 µM (inactive) | > 100 µM (inactive) | > 100 µM (inactive) | > 100 µM (inactive) | > 100 µM (inactive) | > 100 µM (inactive)
4 | N#C/C(C(=O)CCl)=C1\Nc2ccccc2O1 | 3.76 µM (inactive) | 2.17 µM (inactive) | 10.2 µM (inactive) | 3.43 µM (inactive) | 2.01 | 4.13 µM (inactive) | 3.89 µM (inactive) | 1.65 µM (inactive) | 3.24 µM (inactive) | 3.35 µM (inactive) | 2.2 µM (inactive) | 2.89 µM (inactive) | 1.85 µM (inactive) | 2.67 µM (inactive) | 2.62 µM (inactive) | 3.3 µM (inactive) | 1.72 µM (inactive) | 12.1 µM (inactive)
5 | Cc1[nH]c(-c2ccccc2)c(O)c1C(=O)OC12CC3CC(CC(C3)C1)C2 | 14 µM (inactive) | 17.1 µM (inactive) | 15.6 µM (inactive) | 16.7 µM (inactive) | 11.9 | 3.99 µM (inactive) | 5.01 µM (inactive) | – | 15 µM (inactive) | 12.5 µM (inactive) | 13.7 µM (inactive) | 12.9 µM (inactive) | 6.73 µM (inactive) | 13.9 µM (inactive) | 2.93 µM (inactive) | 16.7 µM (inactive) | 14.6 µM (inactive) | 14.7 µM (inactive)
6 | Nc1ccc(S(=O)(=O)NCCS(=O)(=O)O)cc1 | > 100 µM (inactive) | > 100 µM (inactive) | > 100 µM (inactive) | > 100 µM (inactive) | > 100 | > 100 µM (inactive) | > 100 µM (inactive) | > 100 µM (inactive) | > 100 µM (inactive) | > 100 µM (inactive) | > 100 µM (inactive) | > 100 µM (inactive) | > 100 µM (inactive) | > 100 µM (inactive) | > 100 µM (inactive) | > 100 µM (inactive) | > 100 µM (inactive) | –
